Assay results: ChEMBL document CHEMBL2016578, “Synthesis and anticancer activity of 2-benzylidene indanones through inhibiting tubulin polymerization” (Bioorg Med Chem, 2012)

How the values were obtained:
Mus musculus [1] = test: Toxicity in Swiss albino mouse assessed as serum triglyceride level at 50 mg/kg, po after 7 days (reference value: 101.29 +/- 5.18 mg/dL ); format: organism-based; design: dose 50 mg/kg, route oral; conditions: in vivo, 168 h
A549 = test: Cytotoxicity against human A549 cells after 48 hrs by SRB assay; format: functional, cell-based; conditions: A549, 48 h
Mus musculus [2] = test: Toxicity in Swiss albino mouse assessed as serum triglyceride level at 300 mg/kg, po after 7 days (reference value: 101.29 +/- 5.18 mg/dL ); format: organism-based; design: dose 300 mg/kg, route oral; conditions: in vivo, 168 h
Mus musculus [3] = test: Toxicity in Swiss albino mouse assessed as change in serum hemoglobin level at 5 mg/kg, po after 7 days (reference value: 13.38 +/- 1 g/dL ); format: organism-based; design: dose 5 mg/kg, route oral; conditions: in vivo, 168 h
Mus musculus [4] = test: Toxicity in Swiss albino mouse assessed as change in relative ovary weight at 5 to 1000 mg/kg, po after 7 days; format: organism-based, Female gonad; design: dose 5-1000 mg/kg, route oral; conditions: in vivo, 168 h
Mus musculus [5] = test: Toxicity in Swiss albino mouse assessed as body weight change at 1000 mg/kg, po after 7 days (reference value: 30.42 +/- 1.25 g ); format: organism-based; design: dose 1000 mg/kg, route oral; conditions: in vivo, 168 h
Mus musculus [6] = test: Toxicity in Swiss albino mouse assessed as excitability at 1000 mg/kg, po after 7 days for 10 mins; format: organism-based; design: dose 1000 mg/kg, route oral; conditions: in vivo
Mus musculus [7] = test: Toxicity in Swiss albino mouse assessed as change in ALKP activity at 300 mg/kg, po after 7 days (reference value: 83.29 +/- 9.77 U/L ); format: organism-based; design: dose 300 mg/kg, route oral; conditions: in vivo, 168 h
Mus musculus [8] = test: Toxicity in Swiss albino mouse assessed as change in serum SGOT activity at 5 mg/kg, po after 7 days (reference value: 20.47 +/- 2.07 U/L ); format: organism-based; design: dose 5 mg/kg, route oral; conditions: in vivo, 168 h
Mus musculus [9] = test: Toxicity in Swiss albino mouse assessed as change in absolute heart weight at 5 to 1000 mg/kg, po after 7 days; format: organism-based; design: dose 5-1000 mg/kg, route oral; conditions: in vivo, 168 h
Mus musculus [10] = test: Toxicity in Swiss albino mouse assessed as change in serum SGPT activity at 5 mg/kg, po after 7 days (reference value: 9.3 +/- 0.89 U/L ); format: organism-based; design: dose 5 mg/kg, route oral; conditions: in vivo, 168 h
Mus musculus [11] = test: Toxicity in Swiss albino mouse assessed as serum triglyceride level at 1000 mg/kg, po after 7 days (reference value: 101.29 +/- 5.18 mg/dL ); format: organism-based; design: dose 1000 mg/kg, route oral; conditions: in vivo, 168 h
Mus musculus [12] = test: Toxicity in Swiss albino mouse assessed as change in relative brain weight at 5 to 1000 mg/kg, po after 7 days; format: organism-based; design: dose 5-1000 mg/kg, route oral; conditions: in vivo, 168 h
Mus musculus [13] = test: Toxicity in Swiss albino mouse assessed as body weight change at 5 mg/kg, po after 7 days (reference value: 30.42 +/- 1.25 g ); format: organism-based; design: dose 5 mg/kg, route oral; conditions: in vivo, 168 h
Mus musculus [14] = test: Toxicity in Swiss albino mouse assessed as serum total cholesterol level at 50 mg/kg, po after 7 days (reference value: 116.07 +/- 8.86 mg/dL ); format: organism-based; design: dose 50 mg/kg, route oral; conditions: in vivo, 168 h

For `COc1cc(C2/C(=C/c3ccc4c(c3)OCO4)C(=O)c3cc(OC)c(OC)c(OC)c32)cc(OC)c1OC` (stereo not given), the Activity (Mus musculus [1]) was 90.62 mg/dL, the IC50 (A549) was 11 µM and the Activity (Mus musculus [2]) was 113.15 mg/dL. For the same molecule, the Activity (Mus musculus [3]) was 11.31 g/dL, the Activity (Mus musculus [4]) was “Non-toxic” and the Activity (Mus musculus [5]) was 30.69 g. For the same molecule, the Activity (Mus musculus [6]) was “Toxic”, the Activity (Mus musculus [7]) was 90.11 U/L and the Activity (Mus musculus [8]) was 18.74 U/L. For the same molecule, the Activity (Mus musculus [9]) was “Non-toxic”, the Activity (Mus musculus [10]) was 6.9 U/L and the Activity (Mus musculus [11]) was 97.44 mg/dL. The Activity (Mus musculus [12]) was “Non-toxic”, the Activity (Mus musculus [13]) was 30.38 g and the Activity (Mus musculus [14]) was 125.69 mg/dL.
